Test results published in the supplement of paper PMC11424490.

Legend:
NCI-H358 = experiment: fitted bottom plateau of viability curve, % of DMSO control; higher = less maximal inhibition; extreme values may be limits of the assay
Procedure, shortened: (§1)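 Viability was measured by CellTiter-Glo luminescence after 72 h of compound exposure for NCI-H2122 and NCI-H358 or 144 h for SW837, and normalised to DMSO controls as percent of control. Relative IC50, averaged across replicates, and the lower plateau were taken from a four-parameter nonlinear fit.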

SW837 [1] = experiment: as above
Procedure, shortened: as §1

NCI-H2122 [2] = experiment: as above
Procedure, shortened: as §1

SW837 [3] = experiment: relative IC50 of cell viability (CellTiter-Glo); higher = less potent
Procedure: (§2)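 CellTiter-Glo proliferation assay in KRAS G12C mutant NCI-H2122 (72 h), SW837 (144 h) and NCI-H358 cells in 384-well plates. Monotherapy dose response was fitted with a four-parameter curve after normalisation to DMSO controls (% of control, PoC). IC50 is the relative IC50, averaged over replicates. Bottom is the fitted lower plateau in %PoC; Max.Conc. is the top dose tested.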

NCI-H2122 [4] = experiment: as above
Procedure: as §2

| relative IC50 of cell viability (SW837 [3]) | relative IC50 of cell viability (NCI-H2122 [4]) | Structure (SMILES) | fitted bottom plateau of viability curve (NCI-H358) | fitted bottom plateau of viability curve (SW837 [1]) | fitted bottom plateau of viability curve (NCI-H2122 [2]) |
| --- | --- | --- | --- | --- | --- |
| 15.3 nM | 9.8 nM | CC(=O)[C@]1(O)Cc2c(O)c3c(c(O)c2[C@@H](O[C@H]2C[C@H](N)[C@H](O)[C@H](C)O2)C1)C(=O)c1ccccc1C3=O [Idarubicin] (top concentration tested 100.01 nM) | – | 38.7% | 39.7% |
| 5600 nM | 2850 nM | Cc1cn(CCN2CCN(c3ccccc3-c3cc(C#N)cc(C(=O)NCCCN4CCCC4)c3)CC2)c2ccccc12 [LLY-507] (top concentration tested 9999.9 nM) | – | 0% | 24% |
| 943 nM | 75.9 nM | COc1cc(Nc2ncc3c(n2)-c2ccc(Cl)cc2C(c2c(F)cccc2OC)=NC3)ccc1C(=O)O [MLN8237] (top concentration tested 999.95 nM) | – | 13.6% | 21.5% |
| 57 nM | 7.98 nM | CN(Cc1cnc2nc(N)nc(N)c2n1)c1ccc(C(=O)N[C@@H](CCC(=O)O)C(=O)O)cc1 [Methotrexate] (top concentration tested 10000 nM) | – | 31.9% | 37.4% |
| 240 nM | 460 nM | CO[C@@]12[C@H](COC(N)=O)C3=C(C(=O)C(C)=C(N)C3=O)N1C[C@@H]1N[C@@H]12 [Mitomycin C] (top concentration tested 10000 nM) | – | 0.69% | 2.51% |
| 153 nM | 58.5 nM | Cn1c(=O)n(-c2ccc(C(C)(C)C#N)cc2)c2c3cc(-c4cnc5ccccc5c4)ccc3ncc21 [NVP-BEZ235] (top concentration tested 999.9 nM) | – | 33.2% | 9.96% |
| 2240 nM | 5990 nM | COC(=O)c1ccc2c(c1)NC(=O)/C2=C(\Nc1ccc(N(C)C(=O)CN2CCN(C)CC2)cc1)c1ccccc1 [Nintedanib] (top concentration tested 10000 nM) | – | 8.69% | 50.6% |
| 5890 nM | 9200 nM | O=C(O)C(=O)O.[NH-][C@@H]1CCCC[C@H]1[NH-].[Pt+2] [Oxaliplatin] (top concentration tested 50000 nM) | – | 21% | 31.5% |
| 12.5 nM | 3.22 nM | CC(=O)O[C@H]1C(=O)[C@@]2(C)[C@H]([C@H](OC(=O)c3ccccc3)[C@]3(O)C[C@H](OC(=O)[C@H](O)[C@@H](NC(=O)c4ccccc4)c4ccccc4)C(C)=C1C3(C)C)[C@]1(OC(C)=O)CO[C@@H]1C[C@@H]2O [Paclitaxel] (top concentration tested 100.01 nM) | – | 25.6% | 4.65% |
| 20.9 nM | 16.4 nM | Cc1[nH]c2ccccc2c1CCNCc1ccc(/C=C/C(=O)NO)cc1 [Panobinostat] (top concentration tested 99.878 nM) | – | 0.651% | 11.3% |
| 76.4 nM | 5.65 nM | C/C=C1\NC(=O)[C@H]2CSSCC/C=C/[C@H](CC(=O)N[C@H](C(C)C)C(=O)N2)OC(=O)[C@H](C(C)C)NC1=O [Romidepsin] (top concentration tested 10000 nM) | – | 0.0763% | 0.385% |
| 6500 nM | 5790 nM | CC(C)(C)c1ccc(S(=O)(=O)NCc2ccc(C(=O)Nc3cccnc3)cc2)cc1 [STF-31] (top concentration tested 10000 nM) | – | 0% | 12.7% |
| 33.4 nM | 21.7 nM | CC(=O)Nc1cccc(-n2c(=O)n(C3CC3)c(=O)c3c(Nc4ccc(I)cc4F)n(C)c(=O)c(C)c32)c1 [Trametinib] (top concentration tested 1000 nM) | – | 11.6% | 3.01% |
| 807 nM | 278 nM | CNCc1ccc(-c2cc(-c3nc(-c4ccc(S(=O)(=O)C(C)C)cc4)cnc3N)on2)cc1 [VE-822/VX-970] (top concentration tested 9999.9 nM) | – | 2.47% | 0.375% |
| 80.2 nM | 4.34 nM | CC[C@]1(O)C[C@@H]2CN(CCc3c([nH]c4ccccc34)[C@@](C(=O)OC)(c3cc4c(cc3OC)N(C)[C@H]3[C@@](O)(C(=O)OC)[C@H](OC(C)=O)[C@]5(CC)C=CCN6CC[C@]43[C@@H]65)C2)C1 [Vinblastine] (top concentration tested 99.992 nM) | – | 0% | 4.54% |
| 17.1 nM | 9.06 nM | CCC1=C[C@@H]2CN(C1)Cc1c([nH]c3ccccc13)[C@@](C(=O)OC)(c1cc3c(cc1OC)N(C)[C@H]1[C@@](O)(C(=O)OC)[C@H](OC(C)=O)[C@]4(CC)C=CCN5CC[C@]31[C@@H]54)C2 [Vinorelbine] (top concentration tested 100.01 nM) | – | 42.9% | 5.21% |
| 2310 nM | 778 nM | CN[C@H]1CN(c2ccc3c(=O)c(C(=O)O)cn(-c4nccs4)c3n2)C[C@@H]1OC [Vosaroxin] (top concentration tested 2500 nM) | – | 0% | 34.3% |

Continued, molecule first:

| Structure (SMILES) | relative IC50 of cell viability (SW837 [3]) | relative IC50 of cell viability (NCI-H2122 [4]) | fitted bottom plateau of viability curve (NCI-H358) | fitted bottom plateau of viability curve (SW837 [1]) | fitted bottom plateau of viability curve (NCI-H2122 [2]) |
| --- | --- | --- | --- | --- | --- |
| Cc1c(Cn2c(C)nc3c(C(=O)O)cc(N4CCOCC4)cc32)cccc1C(F)(F)F (top concentration tested 9999.9 nM) | – | – | 93.8% | 98.7% | 70.8% |
| O=C(C1CC1)N1CC[C@@H](Cn2c(-c3ccc(-c4ccc5occc5c4)cc3)nc3cnccc32)C1 (top concentration tested 9999.9 nM) | – | – | 96.6% | 91.7% | 75.1% |
| O=c1cc(-c2cccc3c2Sc2ccccc2S3)oc(N2CCOCC2)c1 (top concentration tested 9999.9 nM) | – | – | 76.8% | 101% | 70.7% |
| CC(C)N(CCCNC(=O)Nc1ccc(C(C)(C)C)cc1)C[C@H]1O[C@@H](n2ccc3c(N)ncnc32)[C@H](O)[C@@H]1O (top concentration tested 50000 nM) | – | – | 81.5% | 93.4% | 67.3% |
| COc1cc2nc(C)nc(N[C@H](C)c3cc(N)cc(C(F)(F)F)c3)c2cc1O[C@H]1CCOC1 [BI-3406 (SOSi)] (top concentration tested 1000.1 nM) | – | – | 82% | 102% | 69.4% |
| CC[C@H](Nc1ncnc2[nH]cnc12)c1nc2cccc(F)c2c(=O)n1-c1ccccc1 [Cal-101] (top concentration tested 10000 nM) | – | – | 84.2% | 85.3% | 75.5% |
| O=P1(N(CCCl)CCCl)NCCCO1 (stereo not drawn) [Cyclophosphamide] (top concentration tested 10000 nM) | – | – | 99.7% | 87.3% | 88.9% |
| COc1cc([C@@H]2c3cc4c(cc3[C@@H](O[C@@H]3O[C@@H]5CO[C@@H](C)O[C@H]5[C@H](O)[C@H]3O)[C@H]3COC(=O)[C@H]23)OCO4)cc(OC)c1O [Etoposide] (top concentration tested 10000 nM) | 1340 nM | 995 nM | – | 14.5% | 51.5% |
| CN1CC[C@H](c2c(O)cc(O)c3c(=O)cc(-c4ccccc4Cl)oc23)[C@H](O)C1 [Flavopiridol] (top concentration tested 500.11 nM) | 331 nM | 149 nM | – | 0% | 3.96% |
| N#CN=C(NCCCCCCOc1ccc(Cl)cc1)Nc1ccncc1 [GMX1778] (top concentration tested 9999.9 nM) | 30.6 nM | 210 nM | – | 17.9% | 5.11% |
| CCOC(=O)CCNc1cc(N2CCc3ccccc3CC2)nc(-c2ccccn2)n1 [GSK-J4] (top concentration tested 50000 nM) | 12300 nM | 64800 nM | – | 28.7% | 61.7% |
| CC(C)c1cc(-c2n[nH]c(=O)n2-c2ccc3c(ccn3C)c2)c(O)cc1O [Ganetespib] (top concentration tested 99.888 nM) | 87.1 nM | 11.2 nM | – | 0% | 8.33% |
| Nc1ccn([C@@H]2O[C@H](CO)[C@@H](O)C2(F)F)c(=O)n1 [Gemcitabine] (top concentration tested 99.925 nM) | 12.3 nM | 7.62 nM | – | 18% | 28.4% |
